Measured values taken from ChEMBL document CHEMBL1201862, “PubChem BioAssay data set” (2004).
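A five-concentration, 48-hour dose response in 96-well plates underlies each endpoint, interpolated linearly between surrounding concentrations. GI50: concentration for 50% inhibition of growth.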 The source made the active and inactive calls. Rule as the data show it: active = GI50 up to about 1.1 µM and inactive = higher.

Tests used:
Assay in all cases: NCI anticancer screen, dose series, 48 h
A549 = tested on: A549
COLO 205 = tested on: COLO 205
HOP-62 = tested on: HOP-62
HT-29 = tested on: HT-29
K562 = tested on: K562
KM-20L2 = tested on: KM-20L2
LOX IMVI = tested on: LOX IMVI
MOLT-4 = tested on: MOLT-4
NCI-H226 = tested on: NCI-H226
OVCAR-4 = tested on: OVCAR-4
SF-268 = tested on: SF-268
SK-MEL-2 = tested on: SK-MEL-2
SK-MEL-5 = tested on: SK-MEL-5
SK-OV-3 = tested on: SK-OV-3
SW-620 = tested on: SW-620
UO-31 = tested on: UO-31
IGROV-1 = tested on: IGROV-1
OVCAR-5 = tested on: OVCAR-5
SF-539 = tested on: SF-539
HOP-92 = tested on: HOP-92

Measured: GI50

CCN(CC)c1cccc2c1/C(=N/O)CCCC2
inactive: A549 > 100 µM | COLO 205 > 100 µM | HOP-62 > 100 µM | HT-29 97.1 µM | K562 46.8 µM | KM-20L2 > 100 µM | LOX IMVI > 100 µM | MOLT-4 65.8 µM | NCI-H226 > 100 µM | OVCAR-4 > 100 µM | SF-268 > 100 µM | SK-MEL-2 > 100 µM | SK-MEL-5 70.8 µM | SK-OV-3 > 100 µM | SW-620 > 100 µM | UO-31 > 100 µM

O=C1c2ccccc2N(O)C1(c1ccccc1)C1CCCC=C1N1CCOCC1 (centres undefined)
inactive: A549 50.4 µM | COLO 205 > 100 µM | HOP-62 > 100 µM | HT-29 > 100 µM | IGROV-1 > 100 µM | K562 39.8 µM | KM-20L2 > 100 µM | LOX IMVI 71.1 µM | MOLT-4 20.8 µM | NCI-H226 69.5 µM | OVCAR-5 > 100 µM | SF-268 40.8 µM | SF-539 80.9 µM | SK-MEL-5 > 69.5 µM | SK-OV-3 > 100 µM | SW-620 > 100 µM | UO-31 22.5 µM

CC(=O)NNc1nc(C)c(C(=O)NNC(=O)C(=O)Nc2ccc([N+](=O)[O-])cc2C#N)s1
inactive: A549 > 100 µM | COLO 205 > 100 µM | HOP-62 > 100 µM | HT-29 > 100 µM | IGROV-1 > 100 µM | K562 38.1 µM | KM-20L2 > 100 µM | LOX IMVI 52.7 µM | MOLT-4 38.5 µM | NCI-H226 > 100 µM | OVCAR-4 45.3 µM | OVCAR-5 > 100 µM | SF-268 52.2 µM | SF-539 > 100 µM | SK-MEL-2 > 100 µM | SK-MEL-5 > 100 µM | SK-OV-3 > 100 µM | SW-620 55.1 µM | UO-31 > 100 µM

CCOC(=O)/C=C/n1c2ccccc2c(=O)c2ccccc21
inactive: A549 > 100 µM | COLO 205 > 100 µM | HOP-62 > 100 µM | HT-29 > 100 µM | IGROV-1 > 100 µM | K562 > 100 µM | KM-20L2 > 100 µM | LOX IMVI > 100 µM | MOLT-4 > 100 µM | NCI-H226 > 100 µM | OVCAR-4 > 100 µM | SF-268 > 100 µM | SF-539 > 100 µM | SK-MEL-2 > 100 µM | SW-620 > 100 µM | UO-31 > 100 µM

COc1ccc(CCn2cncn2)cc1
inactive: A549 > 100 µM | COLO 205 > 100 µM | HOP-62 > 100 µM | HOP-92 > 100 µM | HT-29 > 100 µM | IGROV-1 > 100 µM | K562 > 100 µM | KM-20L2 > 100 µM | MOLT-4 > 100 µM | NCI-H226 > 100 µM | OVCAR-4 > 100 µM | OVCAR-5 > 100 µM | SF-268 > 100 µM | SF-539 > 100 µM | SK-MEL-5 > 100 µM | SK-OV-3 > 100 µM | SW-620 > 100 µM | UO-31 > 100 µM

O=C1C(Cl)N(c2ccccc2[N+](=O)[O-])C1c1c[nH]c2ccccc12 (centres undefined)
inactive: A549 > 100 µM | COLO 205 > 100 µM | HOP-62 > 100 µM | HOP-92 81.3 µM | HT-29 > 100 µM | IGROV-1 > 100 µM | K562 > 100 µM | KM-20L2 > 100 µM | MOLT-4 > 100 µM | OVCAR-4 > 100 µM | OVCAR-5 1.36 µM | SF-268 > 100 µM | SF-539 > 100 µM | SK-MEL-2 > 100 µM | SK-MEL-5 > 100 µM | SK-OV-3 > 100 µM | SW-620 > 100 µM | UO-31 54.6 µM
